Measured values: patent US9308262B2, “Pharmaceutical composition for administration to nails” (NOVALIQ GMBH, priority 2011, dated 2016)

Experiment: Penetration of drug from SFA-based carrier into excised human toe nails
Assay type: in vitro ADME
Conditions: for depth below the nail surface at which significant tacrolimus concentrations were found: 1 mg/mL tacrolimus in F6H8 with 3.8 wt.-% ethanol, 1,000 min, 40 μm slices
Method: Tacrolimus was dissolved in a liquid carrier comprising F6H8 and 3.8 wt.-% ethanol to obtain a clear solution having a tacrolimus concentration of 1 mg/mL. The composition was used to evaluate the penetration of tacrolimus from an SFA-based carrier into human nails.
Excised human toe nails were obtained and washed in isotonic sodium chloride solution. For each nail, a filter membrane of 16 mm in diameter (2.01 cm^2) was loaded with 30 μL of the test solution, placed onto the nail and incubated for 1,000 min. At the end of the period, the remaining amount of the test solution in the filter and on the nail was collected. From each nail, punch biopsies of 5 mm in diameter (0.1963 cm^2) were obtained. The punch biopsies were frozen and microtomised at −40° C. into 20 horizontal slices of 40 μm thickness. Each slice was extracted and analysed for tacrolimus by HPLC-MS, as were the collected amounts of non-permeated formulation.
The experiment of Example 1 was repeated, except that a solution of ciclopiroxolamine was used instead of a tacrolimus solution. The test composition contained 1% (w/v) of ciclopiroxolamine dissolved in a vehicle of F6H8 and ethanol (85/15 wt.-%).

Row | fraction of the administered amount of ciclopiroxolamine found in the nail matrix (1% (w/v) ciclopiroxolamine in F6H8 and ethanol (85/15 wt.-%), 1,000 min incubation) [%] | depth below the nail surface at which significant tacrolimus concentrations were found [μm] | depth below the nail surface at which significant tacrolimus concentrations were found (listed as Tacrolimus) [μm] | total amount of tacrolimus found in the nails, relative to the administered dose (30 μL of 1 mg/mL tacrolimus solution in F6H8 with 3.8 wt.-% ethanol, 1,000 min incubation, HPLC-MS) | Structure (SMILES) | depth distribution of ciclopiroxolamine in the nail matrix (1% (w/v) ciclopiroxolamine in F6H8 and ethanol (85/15 wt.-%), 1,000 min)
1 | 49.5 | – | – | – | Cc1cc(C2CCCCC2)n(O)c(=O)c1 [ciclopiroxolamine] | Significant amounts of drug were found throughout the depth of the nail matrix
2 | – | 400 | ≥ 400 | approx. 9% | C=CC[C@@H]1/C=C(\C)C[C@H](C)C[C@H](OC)[C@H]2O[C@@](O)(C(=O)C(=O)N3CCCC[C@H]3C(=O)O[C@H](/C(C)=C/[C@@H]3CC[C@@H](O)[C@H](OC)C3)[C@H](C)[C@@H](O)CC1=O)[C@H](C)C[C@@H]2OC [tacrolimus] | –
